32 molecules from US20250101003A1, “SPIROCYCLIC CAV2.3 ANTAGONISTS” (LARIO THERAPEUTICS LIMITED, priority 2021, published 2025) can be followed below.

The target in the experiment is Cav2.3 (Homo sapiens, UniProt Q15878). Nature of the experiment: Human Cav2.3 channel calcium-influx assay. The class given is cell-based. Particulars: HEK-293 T-Rex/Kir2.1/Cav2.3e-β4-α2δ1 cells, Fluo8 fluorescence, without pluronic acid; read-out: Cav2.3 (pIC50) (converted). As for the experimental part:
HEK-293 T-Rex cells were transfected with pcDNA3.1-Kir2.1 to generate a stable cell line. After antibiotic selection, the obtained stable pools were analysed using FLIPR^TETRA (membrane potential assay), and a limiting dilution was performed and a HEK-293 T-Rex/Kir2.1 clone was selected. The clone was transfected with pcDNA3.1-Cav2.3e and pBud-Cav-β4-α2δ1 to generate a stable cell line where the Cav2.3e expression is inducible. After antibiotic selection, functional clone pool analysis and two successive limiting dilutions, the final clone underwent a qPCR analysis and a biophysical and pharmacological validation using patch-clamp.
A compound plate, containing 10 test compounds in eight-points dose response with n=4, was prepared. Test compounds dose response curves were prepared in automated fashion in 100% DMSO at CyBio Felix and starting from a stock solution in 100% DMSO; a defined volume was serially moved into destination wells pre-filled with the desired DMSO volume; stock solution concentration volumes were dependent on the final compounds concentrations to be tested and the final DMSO content used in the assay. For the assay test compounds dose response curves ranged from 30 μM and half log dilution with 0.3% final DMSO. In order to obtain the 8-points dose response curve all the concentrations were created by starting from a 10 mM DMSO stock solution and then moving 9.5 μL into a destination well pre-filled with 20.5 μL of 100% DMSO and repeating this step seven times. This initial step was done into 96 MTP plates, 10 compounds/plate. One 384 MTP was then reformatted to contain all the 10 compounds at 8 concentrations, quadruplicate data points. This so obtained 384 MTP compound plate served as source plate in a “mother to child” process with a CyBi®-Well dispenser in which 0.7 μL of compounds were moved into a destination plate pre-filled with 57.6 μL of Tyrode's buffer 0 mM K+, thus obtaining 4× concentrated compounds solution. In columns 1-2 and 23-24 the control wells were added. Both “source” compound plate and “destination” compound plate were barcoded and a relationship between the two plates was thus generated.
The day before the experiment, cells were detached by gentle wash with DPBS, followed by 5 min incubation at 37° C. with Trypsin solution. Detached cells were diluted with OptiMEM+Doxycycline at 0.2 μg/mL, counted and plated in Poly-D-Lysine coated black/clear bottom (15.000 c/well in 20 μl/well) by the use of a MATRIX WellMate dispenser. Plates were placed into a humidified incubator at 37° C. with 5% CO2 until the experimental day. 24 h after seeding 10 μL/well of 1.5× Fluo8 NW dye solution prepared in Tyrode's buffer 0 mM K^+ were added on top of the seeding medium. Cell plates were incubated for 40-60 min at RT in the dark. We then Injected off-line 10 μL/well of test compounds and controls 4× concentrated in Tyrode's Buffer 0 mM K+ with the CyBi®-Well instrument. Cell plates were incubated 3 minutes at RT. Finally, we injected 20 μL/well of 3× concentrated activator solution (K20-Na130-Ca2 buffer: 20 mM KCl, 130 mM NaCl, 2 mM CaCl2, 10 mM HEPES, 10 mM Glucose, final concentrations, prepared starting from “KO-Na150-Ca2” and “K150-Na0-Ca2” buffers) at FDSS7000EX instrument and read emitted fluorescence for 130 seconds.
Data analysis was performed with Genedata Screener® software and reported compounds activity as % effect in relation to the normalization standards. The Kinetic Response Value (KRV) is calculated as follows:
KRV=Maximal fluorescence recorded from second 5 to second 130 minus baseline fluorescence, computed as average from second 1 to second 2, of the kinetic trace. The KRV was normalized versus Neutral Controls and Inhibitor Controls in order to obtain the Activity[%] for each well. […] Therefore, the compound activity values were scaled (based on the two references) to a common range (two-point normalization). […]

Chain of Cav2.3 (Q15878 1-747 limits assumed): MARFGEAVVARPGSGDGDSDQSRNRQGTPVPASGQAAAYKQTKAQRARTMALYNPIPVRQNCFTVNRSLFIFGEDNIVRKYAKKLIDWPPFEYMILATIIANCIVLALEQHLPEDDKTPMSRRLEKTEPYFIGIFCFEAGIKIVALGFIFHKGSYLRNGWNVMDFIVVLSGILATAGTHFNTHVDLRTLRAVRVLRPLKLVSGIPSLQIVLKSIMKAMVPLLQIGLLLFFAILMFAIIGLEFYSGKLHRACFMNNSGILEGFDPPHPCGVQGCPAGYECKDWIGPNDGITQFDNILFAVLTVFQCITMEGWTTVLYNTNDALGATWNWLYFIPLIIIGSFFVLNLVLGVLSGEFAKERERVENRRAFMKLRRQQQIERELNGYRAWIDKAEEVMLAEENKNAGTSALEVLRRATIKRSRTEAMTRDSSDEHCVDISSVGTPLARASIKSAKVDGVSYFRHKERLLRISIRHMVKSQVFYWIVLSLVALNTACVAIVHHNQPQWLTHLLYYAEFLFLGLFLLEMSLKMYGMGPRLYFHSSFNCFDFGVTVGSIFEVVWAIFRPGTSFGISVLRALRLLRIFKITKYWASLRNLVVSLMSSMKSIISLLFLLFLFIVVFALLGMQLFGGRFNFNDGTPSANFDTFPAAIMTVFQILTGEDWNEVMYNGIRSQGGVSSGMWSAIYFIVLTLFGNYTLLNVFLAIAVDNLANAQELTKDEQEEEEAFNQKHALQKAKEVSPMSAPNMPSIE
Chain of Cav2.3 (Q15878 1126-2313 limits assumed): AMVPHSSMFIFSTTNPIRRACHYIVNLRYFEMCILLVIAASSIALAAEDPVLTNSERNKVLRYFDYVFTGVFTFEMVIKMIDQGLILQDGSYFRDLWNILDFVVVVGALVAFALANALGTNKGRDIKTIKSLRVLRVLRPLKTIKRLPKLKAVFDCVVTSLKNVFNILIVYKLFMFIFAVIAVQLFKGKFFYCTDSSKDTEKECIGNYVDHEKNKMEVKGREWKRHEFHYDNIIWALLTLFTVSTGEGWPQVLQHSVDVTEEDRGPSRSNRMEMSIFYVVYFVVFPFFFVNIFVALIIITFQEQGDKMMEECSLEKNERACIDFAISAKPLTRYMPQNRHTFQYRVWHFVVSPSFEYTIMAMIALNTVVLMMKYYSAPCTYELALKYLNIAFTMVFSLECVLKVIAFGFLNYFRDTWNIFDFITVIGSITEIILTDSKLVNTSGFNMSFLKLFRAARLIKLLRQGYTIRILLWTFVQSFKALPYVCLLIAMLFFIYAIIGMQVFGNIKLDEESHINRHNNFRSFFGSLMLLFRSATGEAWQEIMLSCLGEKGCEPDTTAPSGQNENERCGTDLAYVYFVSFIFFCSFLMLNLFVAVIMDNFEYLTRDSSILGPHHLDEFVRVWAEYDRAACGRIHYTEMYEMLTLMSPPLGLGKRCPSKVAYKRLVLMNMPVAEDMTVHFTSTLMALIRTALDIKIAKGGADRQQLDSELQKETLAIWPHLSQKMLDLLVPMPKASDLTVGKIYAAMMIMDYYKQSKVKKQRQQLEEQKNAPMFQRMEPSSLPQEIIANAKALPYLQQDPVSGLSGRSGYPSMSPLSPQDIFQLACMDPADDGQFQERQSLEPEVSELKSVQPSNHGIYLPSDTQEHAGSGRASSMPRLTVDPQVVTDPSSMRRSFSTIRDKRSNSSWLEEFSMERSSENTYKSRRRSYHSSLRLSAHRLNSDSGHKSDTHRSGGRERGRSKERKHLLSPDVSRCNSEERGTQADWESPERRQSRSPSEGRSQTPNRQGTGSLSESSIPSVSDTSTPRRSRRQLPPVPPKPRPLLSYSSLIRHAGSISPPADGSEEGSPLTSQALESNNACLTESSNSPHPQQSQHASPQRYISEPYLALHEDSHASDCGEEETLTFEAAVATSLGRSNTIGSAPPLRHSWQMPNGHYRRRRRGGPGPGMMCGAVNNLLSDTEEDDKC

Turning to `CC(=O)Nc1nnc(S(=O)(=O)N2CC3(CCC3)CC2C)s1` (centres unmarked) [Example 40, N-(5-((7-methyl-6-azaspiro[3.4]octan-6-yl)sulfonyl)-1,3,4-thiadiazol-2-yl)acetamide], the IC50 is 8.32 µM.

For the molecule `CC1CC2(CCC2)CN1S(=O)(=O)c1nc2ccccc2s1` (centres unmarked) [Example 67, 2-((7-Methyl-6-azaspiro [3.4]octan-6-yl)sulfonyl)benzo[d]thiazole], the IC50 is 9.77 µM.

For the molecule `CC1CCC2(CCC2)CN1S(=O)(=O)c1cccs1` (centres unmarked) [Example 60, 7-Methyl-6-(thiophen-2-ylsulfonyl)-6-azaspiro[3.5]nonane], the IC50 is 4.79 µM.

`CC1CC2(CCC2)CN1S(=O)(=O)c1ccc2c(c1)OCCO2` (single isomer, unassigned) [Example 7, 6-((2,3-dihydrobenzo[b][1,4]dioxin-6-yl)sulfonyl)-7-methyl-6-azaspiro[3.4]octane]: the IC50 is 2.19 µM.

As for `CC1CC2(CCC2)CN1S(=O)(=O)c1cnccn1` (centres unmarked) [Example 39, 7-methyl-6-(pyrazin-2-ylsulfonyl)-6-azaspiro[3.4]octane], the IC50 was 10.7 µM.

`CC1CC2(CCC2)CN1S(=O)(=O)c1ccc2ccccc2n1` (centres unmarked) [Example 79, 2-((7-Methyl-6-azaspiro[3.4]octan-6-yl)sulfonyl)quinoline]: the IC50 is 6.31 µM.

Turning to `Cc1ccc(S(=O)(=O)N2CC3(CCC3)CC2C)o1` (centres unmarked) [Example 53, 7-Methyl-6-((5-methylfuran-2-yl)sulfonyl)-6-azaspiro[3.4]octane], the IC50 is 4.9 µM.

As for `CC1CC2(CCC2)CN1S(=O)(=O)c1ccc(C#N)s1` (single isomer, unassigned) [Example 9, 5-((7-Methyl-6-azaspiro[3.4]octan-6-yl)sulfonyl)thiophene-2-carbonitrile], the IC50 is 7.94 µM.

Take `CCC1CC2(CCC2)CN1S(=O)(=O)c1ccc2ccsc2c1` (centres unmarked) [Example 35, 6-(Benzo[b]thiophen-6-ylsulfonyl)-7-ethyl-6-azaspiro[3.4]octane]: the IC50 was 3.8 µM.

As for `CC1CC2(CCC2)CN1S(=O)(=O)c1ccco1` (single isomer, unassigned) [Example 38, 6-(furan-2-ylsulfonyl)-7-methyl-6-azaspiro[3.4]octane], the IC50 is 3.39 µM.

As for `CC1CC2(CCC2)CN1S(=O)(=O)c1ccc(C#N)s1` (single isomer, unassigned) [Example 10, 5-((7-methyl-6-azaspiro[3.4]octan-6-yl)sulfonyl)thiophene-2-carbonitrile], the IC50 is 2.69 µM.

`CC1CC2(CCC2)CN1S(=O)(=O)c1ccc2[nH]c(=O)[nH]c2c1` (centres unmarked) [Example 59, 5-((7-Methyl-6-azaspiro[3.4]octan-6-yl)sulfonyl)-1,3-dihydro-2H-benzo[d]imidazol-2-one]: the IC50 was 11.2 µM.

`CC(C)Oc1cc(S(=O)(=O)N2CC3(CCC3)CC2C)ccn1` (centres unmarked) [Example 84, 6-((2-Isopropoxypyridin-4-yl)sulfonyl)-7-methyl-6-azaspiro[3.4]octane]: the IC50 was 4.47 µM.

Regarding `Cc1ccnc2cc(S(=O)(=O)N3CC4(CCC4)CC3C)ccc12` (single isomer, unassigned) [Example 82, 4-methyl-7-((7-methyl-6-azaspiro[3.4]octan-6-yl)sulfonyl)quinoline], the IC50 is 10.7 µM.

For the molecule `Cc1nc(C)c(S(=O)(=O)N2CC3(CCC3)CC2C)s1` (centres unmarked) [Example 105, 2,4-Dimethyl-5-((7-methyl-6-azaspiro[3.4]octan-6-yl)sulfonyl)thiazole], the IC50 is 4.57 µM.

In the case of `CC1CC2(CCCC2)CN1S(=O)(=O)c1cccs1` (centres unmarked) [Example 73, 3-Methyl-2-(thiophen-2-ylsulfonyl)-2-azaspiro[4.4]nonane], the IC50 is 1.7 µM.

Turning to `CC1CC2(CCC2)CN1S(=O)(=O)c1cc2oc(=O)[nH]c2cc1Cl` (centres unmarked) [Example 56, 5-Chloro-6-((7-methyl-6-azaspiro[3.4]octan-6-yl)sulfonyl)benzo[d]oxazol-2(3H)-one], the IC50 is 8.32 µM.

On to `Cc1noc(C)c1C(=O)N1CCc2ccc(S(=O)(=O)N3CC4(CCC4)CC3C)cc2C1` (centres unmarked) [Example 93, (3,5-Dimethylisoxazol-4-yl)(7-((7-methyl-6-azaspiro[3.4]octan-6-yl)sulfonyl)-3,4-dihydroisoquinolin-2(1H)-yl)methanone], for which the IC50 is 2.04 µM.

In the case of `CC1CC2(CCC2)CN1S(=O)(=O)c1ccccc1` (centres unmarked) [Example 45, 7-Methyl-6-(phenylsulfonyl)-6-azaspiro[3.4]octane], the IC50 was 3.39 µM.

As to `Cc1ccc(S(=O)(=O)N2CC3(CCC3)CC2C)s1` (single isomer, unassigned) [Example 78, 7-methyl-6-((5-methylthiophen-2-yl)sulfonyl)-6-azaspiro[3.4]octane], the IC50 was 3.63 µM.

For the molecule `Cc1ccc(S(=O)(=O)N2CC3(CCC3)CC2C)s1` (centres unmarked) [Example 76, 7-Methyl-6-((5-methylthiophen-2-yl)sulfonyl)-6-azaspiro[3.4]octane], the IC50 is 7.94 µM.

Turning to `Cc1ccc(S(=O)(=O)N2CC3(CCC3)CC2C)o1` (single isomer, unassigned) [Example 54, 7-Methyl-6-((5-methylfuran-2-yl)sulfonyl)-6-azaspiro[3.4]octane], the IC50 is 8.13 µM.

With `CCOC(=O)N1CCc2ccc(S(=O)(=O)N3CC4(CCC4)CC3C)cc2C1` (single isomer, unassigned) [Example 24, Ethyl 7-((7-methyl-6-azaspiro[3.4]octan-6-yl)sulfonyl)-3,4-dihydroisoquinoline-2(1H)-carboxylate], the IC50 is 1.62 µM.

`CCOc1cc(S(=O)(=O)N2CC3(CCC3)CC2C)ccn1` (centres unmarked) [Example 88, 6-((2-Ethoxypyridin-4-yl)sulfonyl)-7-methyl-6-azaspiro[3.4]octane]: the IC50 was 2.51 µM.

For `COc1cc(S(=O)(=O)N2CC3(CCC3)CC2C)ccn1` (centres unmarked) [Example 86, 6-((2-Methoxypyridin-4-yl)sulfonyl)-7-methyl-6-azaspiro[3.4]octane], the IC50 was 1.35 µM.

On to `CC(C)C(=O)N1Cc2ccc(S(=O)(=O)N3CC4(CCC4)CC3C)cc2C1` (centres unmarked) [Example 52, 2-methyl-1-(5-((7-methyl-6-azaspiro[3.4]octan-6-yl)sulfonyl)isoindolin-2-yl)propan-1-one], for which the IC50 was 2 µM.

As for `CC1CC2(CCC2)CN1S(=O)(=O)c1ccc2c(c1)OCCCO2` (centres unmarked) [Example 4, 6-((3,4-Dihydro-2H-benzo[b][1,4]dioxepin-7-yl)sulfonyl)-7-methyl-6-azaspiro[3.4]octane], the IC50 was 4.17 µM.

As for `CC1CC2(CCC2)CN1S(=O)(=O)c1ccc2c(c1)CN(C(=O)C(F)(F)F)CC2` (single isomer, unassigned) [Example 19, 2,2,2-Trifluoro-1-(7-((7-methyl-6-azaspiro[3.4]octan-6-yl)sulfonyl)-3,4-dihydroisoquinolin-2(1H)-yl)ethan-1-one], the IC50 is 1.78 µM.

For `CCC1CC2(CCC2)CN1S(=O)(=O)c1ccnc(C)c1` (centres unmarked) [Example 92, 7-Ethyl-6-((2-methylpyridin-4-yl)sulfonyl)-6-azaspiro[3.4]octane], the IC50 was 2.45 µM.

Regarding `CCC1CC2(CCC2)CN1S(=O)(=O)c1ccc2c(c1)OC(F)(F)O2` (centres unmarked) [Example 50, 6-((2,2-Difluorobenzo[d][1,3]dioxol-5-yl)sulfonyl)-7-ethyl-6-azaspiro[3.4]octane], the IC50 was 9.33 µM.

On to `CC1CC2(CCC2)CN1S(=O)(=O)c1cncs1` (centres unmarked) [Example 109, 5-((7-Methyl-6-azaspiro[3.4]octan-6-yl)sulfonyl)thiazole], for which the IC50 was 3.98 µM.

For the molecule `CC1CC2(CCC2)CN1S(=O)(=O)c1scnc1CO` (centres unmarked) [Example 90, (5-((7-Methyl-6-azaspiro[3.4]octan-6-yl)sulfonyl)thiazol-4-yl)methanol], the IC50 is 11.2 µM.
